ChEMBL document CHEMBL4311962, “Benzofuran-isatin hybrids and their in vitro anti-mycobacterial activities against multi-drug resistant Mycobacterium tuberculosis” (Eur J Med Chem, 2019)

Legend:
[1] = Cytotoxicity against CHO cells assessed as reduction in cell viability incubated for 72 hrs by MTT assay; format: cell-based, Cricetulus griseus; conditions: chinese hamster
[2] = Metabolic stability in SPF ICR mouse liver microsomes assessed as half life […]; format: ADME, Microsome
[3] = Tmax in SPF ICR mouse at 25 mg/kg, po administered as single dose measured for 0.25 to 24 hrs; format: ADME, organism-based; conditions: in vivo
[4] = Cmax in SPF ICR mouse at 25 mg/kg, po administered as single dose measured for 0.25 to 24 hrs; format: ADME, organism-based; set-up: dose 25 mg/kg, route oral; conditions: in vivo
[5] = Elimination half life in SPF ICR mouse at 25 mg/kg, po administered as single dose measured for 0.25 to 24 hrs; format: ADME, organism-based; conditions: in vivo, read-out: beta t1/2 (converted)
[6] = AUC (0 to infinity) in SPF ICR mouse at 25 mg/kg, po administered as single dose measured for 0.25 to 24 hrs; format: ADME, organism-based; set-up: dose 25 mg/kg, time infinity, route oral; conditions: in vivo

Compound	CC50 at 72 h [1] [µM]	further results
CCO/N=C1\C(=O)N(CCCCCCOc2ccc3oc(-c4ccc(F)cc4)c(C(=O)OCC)c3c2)c2ccc(OC)cc21	256	–
CCOC(=O)c1c(-c2ccc(OC)cc2)oc2ccc(OCCCCN3C(=O)C(=O)c4ccccc43)cc12	256	–
CCOC(=O)c1c(-c2ccc(OC)cc2)oc2ccc(OCCCCCN3C(=O)C(=O)c4ccccc43)cc12	128	–
CCOC(=O)c1c(-c2ccc(F)cc2)oc2ccc(OCCN3C(=O)C(=O)c4ccccc43)cc12	128	–
CCOC(=O)c1c(-c2ccc(OC)cc2)oc2ccc(OCCCCCCN3C(=O)/C(=N/NC(N)=S)c4cc(F)ccc43)cc12	128	half-life [2]: 0.29 h; Tmax [3]: 1.81 h; Cmax [4]: 2540 ng/mL; half-life [5]: 2.32 h; AUC(0-inf) [6]: 3800 ng·h/mL
NNC(=O)c1ccncc1 [ISONIAZID]	256	–
CCOC(=O)c1c(-c2ccccc2)oc2ccc(OCCCN3C(=O)C(=O)c4ccccc43)cc12	256	–
CCOC(=O)c1c(-c2ccc(OC)cc2)oc2ccc(OCCCN3C(=O)C(=O)c4cc(F)ccc43)cc12	64	–
CCOC(=O)c1c(-c2ccccc2)oc2ccc(OCCCN3C(=O)/C(=N/O)c4ccccc43)cc12	512	–
CCOC(=O)c1c(-c2ccc(F)cc2)oc2ccc(OCCCCCCN3C(=O)/C(=N\O)c4cc(OC)ccc43)cc12	512	–
CCOC(=O)c1c(-c2ccc(F)cc2)oc2ccc(OCCCCCCN3C(=O)C(=O)c4cc(OC)ccc43)cc12	256	–
CCOC(=O)c1c(-c2ccc(F)cc2)oc2ccc(OCCCN3C(=O)C(=O)c4ccccc43)cc12	256	–
CCOC(=O)c1c(-c2ccccc2)oc2ccc(OCCN3C(=O)C(=O)c4cc(F)ccc43)cc12	64	–
CCOC(=O)c1c(-c2ccccc2)oc2ccc(OCCCN3C(=O)C(=O)c4cc(OC)ccc43)cc12	512	–
CCOC(=O)c1c(-c2ccc(F)cc2)oc2ccc(OCCN3C(=O)C(=O)c4cc(F)ccc43)cc12	64	–
CCOC(=O)c1c(-c2ccc(F)cc2)oc2ccc(OCCCN3C(=O)/C(=N/O)c4ccccc43)cc12	256	–
CCOC(=O)c1c(-c2ccc(F)cc2)oc2ccc(OCCN3C(=O)C(=O)c4cc(OC)ccc43)cc12	512	–
CCOC(=O)c1c(-c2ccccc2)oc2ccc(OCCCCCCN3C(=O)C(=O)c4ccccc43)cc12	128	–
CCOC(=O)c1c(-c2ccc(F)cc2)oc2ccc(OCCCCCCN3C(=O)/C(=N/OC)c4ccccc43)cc12	128	–
CO[C@H]1/C=C/O[C@@]2(C)Oc3c(C)c(O)c4c(O)c(c(/C=N/N5CCN(C)CC5)c(O)c4c3C2=O)NC(=O)/C(C)=C\C=C\[C@H](C)[C@H](O)[C@@H](C)[C@@H](O)[C@@H](C)[C@H](OC(C)=O)[C@@H]1C [RIFAMPIN]	512	–
CNC(=O)c1c(-c2ccc(O)cc2)oc2ccc(O)c(CN3CCCCC3)c12	> 1020	half-life [2]: > 1 h
CCOC(=O)c1c(-c2ccccc2)oc2ccc(OCCCN3C(=O)/C(=N/O)c4cc(OC)ccc43)cc12	512	–
